Experimental data taken from US10095829B2, “Computer implemented methods of treating lung cancer” (WORLDWIDE INNOVATIVE NETWORK, priority 2009, dated 2018).

Key:
[1] = test system: bronchial adenocarcinoma T4 with bones and pleural metastases; details: Example 2 patient; for Clinical outcome: bronchial adenocarcinoma
[2] = test system: non-small cell lung carcinoma (NSCLC), cT4, N0, M1; test: Clinical course under treatment, patient of Example 1; format: in vivo, human; details: Example 1 patient, new subclavious metastasis
Excerpt: The patient was a person. They suffered of a non-small cell lung carcinoma (NSCLC), cT4, N0, M1. […] For HKI 272, the patient has been included in a clinical trial.
Lapatinib, an anti-HER1 and -HER2 inhibitor, was justified, even if no mutation was detected in EGFR, because EGF overexpressed 15 folds in the patient and it was needed to continue HKI 272.

[3] = test system: primary bronchial adenocarcinoma with bilateral pulmonary metastases and asymptomatic cerebral metastases; test: Clinical course under treatment, patient of Example 3; format: in vivo, human; details: Example 3 patient
Excerpt: A patient was diagnosed in May 2007 for a primary bronchial adenocarcinoma with bilateral pulmonary metastases and asymptomatic cerebral metastases. A surgical treatment has been carried out in November 2008 and two therapeutic lines have been used, namely thirteen cycles of cisplatin-gemcitabin for the first line and Alimta for the second one.
However, based on this score table, avastin associated with a score of 384 has been selected.

Compound	Clinical outcome [1]	Clinical outcome [3]	further results
C#Cc1cccc(Nc2ncnc3cc(OCCOC)c(OCCOC)cc23)c1 [Tarceva]	inefficient and led to a rapid progression		
CCC1=C[C@@H]2CN(C1)Cc1c([nH]c3ccccc13)[C@@](C(=O)OC)(c1cc3c(cc1OC)N(C)[C@H]1[C@@](O)(C(=O)OC)[C@H](OC(C)=O)[C@]4(CC)C=CCN5CC[C@]31[C@@H]54)C2 [VINORELBINE]	the disease was stable, then progressed		Survival conferred ([1]; treatment since January 2010): three months survival
CCOc1cc2ncc(C#N)c(Nc3ccc(OCc4ccccn4)c(Cl)c3)c2cc1NC(=O)/C=C/CN(C)C [HKI 272]			Duration of treatment until disease progression was observed [2]: 37 months
Nc1nc2[nH]cc(CCc3ccc(C(=O)N[C@@H](CCC(=O)O)C(=O)O)cc3)c2c(=O)[nH]1 [PEMETREXED]		only associated with a disease progression	
BEVACIZUMAB: VEGFA gene is regarded as major target gene for bevacizumab		major response has been observed after two treatment cycles	
